Data set [1] in a line: Mouse liver microsome stability assay. It counts as in vitro ADME. The note with it: for metabolic stability in words: mouse liver microsomes, 2 hours; for Stability (2 h, Microsomes): percentage remaining relative to t0, error SEM, n ≥ 2. Here is the method:
(§1) Liver microsome stability.
(§2) Mouse Liver Microsome Stability Assay. A mixture of PBS (pH 7.4), NADPH regenerating system solution A (Corning Life Sciences), and NADPH regenerating system solution B (Corning Life Sciences) was incubated at 37° C. in a shaking incubator for 5 min. Next, compound was added in DMSO (final concentration 50 μM, 0.5% DMSO) before ice-cold mouse liver microsomes (Thermo Fisher, male CD-1 mice, pooled) were added (final protein concentration of 1 mg/mL). An aliquot was immediately removed, quenched with an equal volume of 100 μM internal standard and 0.5% hydrochloric acid in ice-cold acetonitrile, and centrifuged at 13,000 rcf for 3 min. The supernatant was diluted 1:5 in ddH2O and analyzed by LC-MS. The reactions were incubated at 37° C. in a shaking incubator for 2 h. A second aliquot was removed, quenched and diluted as before and analyzed by LC-MS. The ratio of the areas of analyte:internal standard at 2 hours was compared to the ratio at t0 to determine the percentage of compound remaining. Analysis was performed on an Agilent 6230 LC/MS TOF system with a 1.8 μm, 2.1×50 mm Agilent ZORBAX Eclipse Plus C18 column.
In general terms: Liver microsomes are a subcellular fraction often used to study metabolism.

The test system of data set [2] is T98G cells. The data set can be described thus: Cell viability, Alamar Blue, 7-day incubation, T98G. The format is cell-based. As to conditions: Homo sapiens, 168 h, MGMT +, error SEM. On the procedure: (§3) Anticancer activity of C8 substituted imidazotetrazines. With a suite of imidazotetrazines in hand, each compound was evaluated against a panel of human GBM cell lines (Table 1a, Table 1b).

Data set [3] concerns U87 cells. Nature of the data set: Cell viability, Alamar Blue, 7-day incubation, U87. The note with it: Homo sapiens, U-87 MG, 168 h, MGMT −, error SEM. The format is cell-based. On the procedure:
as §3

Data set [4] deals with Br23c GBM oncosphere cell line. Nature of the data set: Cell viability, Alamar Blue, 7-day, Br23c GBM oncosphere line. The note with it: Homo sapiens, 168 h, error SEM, read-out: 7-day IC50 MGMT − Br23C. The format is cell-based. On the technique in general: The colour change of resazurin is a common sign of viable cells or microbes.
The test system of data set [5] is GBM Br23c oncospheres intracranially implanted. Nature of the data set: Intracranial mouse model of GBM (Br23c oncospheres). It counts as in vivo. The note with it: for increase in median survival over TMZ: equimolar to 15 mg/kg TMZ, oral gavage once-per-day, 5×/week, 7 weeks; for effect on survival in words: oral gavage, 15 mg/kg TMZ or equimolar dose. An excerpt:
FIG. 5. Evaluation of imidazotetrazines in intracranial mouse models of GBM. GBM Br23c oncospheres were intracranially implanted into female athymic nude mice. Treatment was started 5 days post implantation. […] Compounds were formulated in 10% PEG in PBS immediately prior to each treatment. Number of mice per treatment cohort≥5. Survival curves were compared using log-rank test.
in vivo Efficacy Models. Human GBM Br23c stem-like neurosphere cells were intracranially implanted in female athymic nude mice (150,000 cells/mouse). […] Mice were observed daily for any signs of deterioration, neurotoxicity, or movement disorders. They were inspected for signs of pain and distress, as in accordance with the Johns Hopkins Animal Care and Use Guidelines.

Data set [6] relates to D54 cells. The data set can be described thus: Cell viability, Alamar Blue, 7-day incubation, D54. The note with it: Homo sapiens, D54, 168 h, MGMT −, error SEM. It counts as cell-based. Here is the method: as §3
Data set [7] relates to T98G cells. Nature of the data set: cells. It counts as cell-based. As to conditions: for IC50: Homo sapiens, 7-day incubation; for Fold Change: between IC50 (+/−) O6BG. On the procedure: FIG. 4. Imidazotetrazines were added to T98G cells with or without 3 h pre-treatment of O6BG (100 μM). IC50 values after 7-day incubation and fold changes between (+/−) O6BG treatments are reported. […] Error is SEM, n≥3. Statistical significance was determined by using a two-sample Student's t-test (two-tailed test, assuming equal variance).

Data set [8] is described as follows: physchem. As to conditions: buffered saline (PBS), pH 7.4.
Description: (§4) Hydrolytic stability of C8 substituted imidazotetrazines. […] A HPLC assay was developed to quantify the fraction of intact prodrug remaining in solution after 2 hours at pH 7.4, 37° C.
Data set [9] can be described thus: Assessment of hematological toxicity in vivo. The note with it: mice; for Cohort weight 7 days Post: 7 days after single IV dose of 125 mg/kg; for Cohort weight 7 days Post / Cohort weight Pre-treatment: error SEM, 4 mice; for Cohort weight Pre-treatment: prior to single IV dose of 125 mg/kg; for myelosuppression / white blood cell effect: single IV dose 125 mg/kg, complete blood count after 7 days. On the procedure:
Assessment of hematological toxicity. […] Both lymphocyte (FIG. 3b) and neutrophil (FIG. 8a) concentrations were decreased in TMZ-treated mice. […] Total WBC, lymphocyte, and neutrophil counts for mice treated with these compounds were equivalent to those of control mice.
Assessment of Hematological Toxicity. Male CD-1 IGS mice (n=4 mice/group) were administered a single dose of 125 mg/kg compound intravenously. Imidazotetrazines were formulated with SBEβCD in sterile water immediately prior to injection. Seven days post-treatment, mice were humanely sacrificed and whole blood was collected for assessment of total white blood cells, lymphocytes, neutrophils, platelets, and red blood cells.

A short description of data set [10]: Hydrolytic stability in buffered saline (HPLC assay). As to conditions: saline at pH 7.0, 7.4, and 8.0, 2 h at 37° C.
Description: as §4
A short description of data set [11]: Stability in the absence of microsomes (microsomes replaced with PBS). The format is physicochemical. The note with it: liver microsomes replaced with PBS, percentage remaining relative to t0. Here is the method:
as §1, §2

Data set [12] relates to glioblastoma. As to conditions: cited from earlier work.
For data set [13], the system named is human GBM cell lines. Nature of the data set: Viability in panel of human GBM cell lines. It counts as cell-based. Here is the method:
as §3

Data set [14] relates to genomic DNA of U87 cells. Nature of the data set: O6-methyldeoxyguanosine quantitation in U87 cells. The format is cell-based, human. The note with it: 100 or 1000 μM, 8 hours. On the procedure:
Novel imidazotetrazines induce alkylation-mediated cancer cell death. […] After 8 hours of incubation with compound, the genomic DNA was isolated, quantified, and hydrolyzed to its constituent deoxyribonucleosides, which were quantitated via LC-MS/MS analysis. […] Further confirmation that the novel compounds remain DNA alkylators was obtained upon pre-treatment with MGMT inhibitor O^6-benzylguanine (O6BG). O6BG is a pseudosubstrate for MGMT that quenches cellular stores of the enzyme, leading to the persistence of O^6-methylguanine DNA adducts.
O^6-Methyldeoxyguanosine Quantitation. U87 cells were plated at 1×10^6 c/w in a 6-well plate before they were treated with compound at the indicated concentration (1% final concentration DMSO). After 8 h incubation, the cells were harvested and pelleted. Genomic DNA was extracted using the DNeasy Blood & Tissue Kit (Qiagen, ID: 69504). DNA was then precipitated using the following procedure: 1/10 v/v 3M sodium acetate (pH 5.2) and 2.5× v/v ethanol was added to each sample which was then kept at −80° C. for 1 h. […] The concentration of DNA in each sample was quantified measuring absorbance on a NanoDrop 2000 UV-Vis Spectrophotometer (Thermo Fisher). […] Hydrolyzed samples were then submitted for LC-MS/MS quantitation. Samples were analyzed with a 5500 QTRAP LC/MS/MS system (AB Sciex) with a 1200 series HPLC system (Agilent).

For data set [15] the following is noted: cited from earlier work.
The mark [16] stands for this setting: Table 1a, 7 days, read-out: IC50 T98G.
The mark [17] stands for this setting: Table 1a, 7 days, n ≥ 3, read-out: IC50 U87.
[18] abbreviates: Table 1a, 7 days, read-out: IC50 D54.
Where [19] appears, read: 3 h pre-treatment with O6BG (100 μM).

Where two headings read alike, the source gives them in different places.

A word on the IC50: it is the point on the concentration scale where inhibition reaches its midpoint. As for `CNC(=O)c1ncn2c(=O)n(C)nnc12` [Compound 4, N,3-dimethyl-4-oxo-3,4-dihydroimidazo[5,1-d][1,2,3,5]tetrazine-8-carboxamide], in data set [1], the “metabolic stability in words” value is “some susceptibility to the effects of the microsomes”. The half-maximal inhibitory concentration (IC50) in data set [2] (setting [16]) was found to be 580 ± 20 µM; in data set [3] (setting [17]), 49 ± 7 µM; in data set [4] it was 6 ± 1 µM; in [6] (setting [18]) it was 11 ± 1 µM. In data set [5], the “increase in median survival over TMZ” value turned out to be 24%.
As to `CN(C)C(=O)c1ncn2c(=O)n(C)nnc12` [Compound 5, N,N,3-trimethyl-4-oxo-3,4-dihydroimidazo[5,1-d][1,2,3,5]tetrazine-8-carboxamide], the “metabolic stability in words” value in [1] was “some susceptibility to the effects of the microsomes”. The IC50 in [2] (setting [16]) worked out at 250 ± 60 µM; in [7] (setting [19]), 25 ± 9 µM; in [7] (168 h, without O6BG), 250 ± 60 µM; in [3] (setting [17]), 40 ± 20 µM; in data set [4] it was 6 ± 1 µM; in data set [6] (setting [18]) it was 12 ± 5 µM. In addition, in data set [7], the “Fold Change” value is reported as 10. Further, the “increase in median survival over TMZ” value in data set [5] came out at 46%.
The term half-life denotes how long it takes for the measured level to halve. In the case of `Cc1ncn2c(=O)n(C)nnc12` [Compound 14, 3,8-dimethylimidazo[5,1-d][1,2,3,5]tetrazin-4(3H)-one], the 50% inhibitory concentration (IC50) in [2] (setting [16]) amounted to 6 ± 1 µM; in [3] (setting [17]), 3 ± 1 µM; in data set [6] (setting [18]), 6 ± 3 µM. In addition, the “effect on survival in words” value in data set [5] is on record as “no effect”. This compound also had a half-life in data set [8] of 40 h.
For the compound `CC(=O)c1ncn2c(=O)n(C)nnc12` [Compound 17, 8-acetyl-3-methylimidazo[5,1-d][1,2,3,5]tetrazin-4(3H)-one], the “metabolic stability in words” value in [1] is listed as “generally stable to oxidative metabolism”. Further, the IC50 in data set [7] (setting [19]) worked out at 32 ± 4 µM; in data set [7] (168 h, without O6BG), 240 ± 20 µM; in [4], 5.2 ± 0.3 µM; in data set [6] (setting [18]) it was 18 ± 1 µM. Besides, in data set [7], the “Fold Change” value was determined as 8. For the same compound, in data set [9], the “Cohort weight 7 days Post” value worked out at 31 ± 1 g. For the same compound, in data set [9], the “Cohort weight Pre-treatment” value came out at 30 ± 1 g. For the same compound, the “myelosuppression / white blood cell effect” value in [9] is reported as “did not produce myelosuppression”. Besides, the “extension of median survival past TMZ-treated mice” value in data set [5] (14.9 mg/kg oral once-per-day for 5 total doses) was “more than 50 days”. Besides, the “pH dependence of hydrolysis” value in data set [10] is “pH-dependent”.
Consider `Cn1nnc2c(-c3ccccc3)ncn2c1=O` [Compound 23, 3-methyl-8-phenylimidazo[5,1-d][1,2,3,5]tetrazin-4(3H)-one], for which, in [1], the “Stability (2 h, Microsomes)” value was found to be 44 ± 2%. Moreover, the IC50 in data set [2] (setting [16]) is 14 ± 1 µM; in [3] (setting [17]) it was 9 ± 1 µM; in data set [6] (setting [18]) it was 7 ± 1 µM. Moreover, the “Stability (2 h, No Microsomes)” value in data set [11] turned out to be 103 ± 5%.
With `Cn1nnc2c(C(N)=O)ncn2c1=O` [TMZ, temozolomide, reference compound], the “Stability (2 h, Microsomes)” value in [1] turned out to be 87 ± 6%. Also, the “metabolic stability in words” value in data set [1] is given as “insensitive to metabolic perturbation”. The IC50 is 660 ± 10 µM in data set [2] (setting [16]); 660 ± 10 µM in [2] (Table 1b, read-out: 7-day IC50 T98G); 660 ± 10 µM in data set [7] (168 h, without O6BG); 51 ± 8 µM in [3] (setting [17]); 51 ± 8 µM in [3] (Table 1b, read-out: 7-day IC50 U87); not above 50 µM in data set [13] (GBM cell lines with negligible MGMT expression, read-out: IC50 in cell lines with negligible MGMT expression). The IC50 in data set [13] (GBM cell lines with significant MGMT expression, read-out: IC50 in cell lines with significant MGMT expression) was more than 300 µM; in data set [4], 5.2 ± 0.2 µM; in data set [6] (setting [18]), 12 ± 1 µM; in [6] (Table 1b, read-out: 7-day IC50 D54) it was 12 ± 1 µM. In addition, the “enhancement in cytotoxicity after O6BG pre-incubation” value in [7] (O6BG 100 μM) is reported as “eight-fold”. Further, the “myelotoxicity incidence in treated patients” value in data set [12] (TMZ-treated patients) was approximately 20%. Moreover, in [12] (patients whose tumors do not express MGMT), the median survival entry is listed as “approximately two”. Besides, in data set [9], the “Cohort weight 7 days Post” value is recorded as 32 ± 1 g. The “Cohort weight Pre-treatment” value in data set [9] is 31 ± 1 g. Further, the “myelosuppression / white blood cell effect” value in data set [9] is reported as “white blood cell (WBC) depletion”. Moreover, the “Stability (2 h, No Microsomes)” value in data set [11] is given as 86 ± 4%. The “concentration of O6-methylated deoxyguanosine” value in data set [14] was “Dose dependent increases”. For the same compound, in [5], the “effect on survival in words” value is “significantly increased median survival compared with vehicle”. Further, the “cerebral spinal fluid concentrations as percent of those in the plasma” value in data set [15] (humans) is reported as 20%. For the same compound, in [15] (in vivo and in aqueous solutions in vitro), the half-life was approximately 2 h.

These data come from patent US12234240B2, “Substituted imidazo[5,1-d][1,2,3,5]tetrazines for the treatment of cancer” (The Board of Trustees of the University of Illinois, priority 2018, dated 2025).
